Test results from patent US9326513B2, “Fungicidal compositions” (Syngenta Participations AG, priority 2011, dated 2016).
Several values for one entry are separate records, joined by “and”; a condition that tells them apart may be missing. Identical values can stand only once. Like-named read-outs stand apart in the source and are kept apart here.

What was measured:
[1] = system: Phakopsora pachyrhizi (triazole tolerant soybeanrust strain); experiment: Phakopsora pachyrhizi on soybean, preventive treatment; type: in vivo; conditions: solo, soybean leaf discs, 1 day preventive, 11 days after application
[2] = system: Mycosphaerella arachidis (y. Cercospora arachidicola); experiment: Mycosphaerella arachidis (brown leaf spot of groundnut), PDB microtiter plate, visual after 5-6 days; type: cell-based; conditions: Mycosphaerella arachidis, single compound
[3] = system: Septoria tritici; experiment: Septoria tritici (leaf blotch), PDB microtiter plate, visual after 72 hrs; type: cell-based; conditions: Zymoseptoria tritici, single compound
[4] = system: Sclerotinia sclerotiorum; experiment: Sclerotinia sclerotiorum on oilseed rape, preventive treatment; type: in vivo; conditions: solo, 1 day preventive, 11 days after application
Excerpt: In the following Tables ‘Activity (%)’ means the assessed experimental activity (% disease control in this test when compared to untreated control leaf disks under the same conditions, which show extensive disease development) and “P” is the expected value calculated (expected) activity according to the COLBY formula (see above). The column headed ‘S?’ indicates whether or not synergy was observed, with ‘y’ meaning that synergy was observed.
Sclerotinia sclerotiorum on Oilseed Rape, Preventive Treatment
The compound activity was tested under 1 day preventive conditions. Oilseed rape plants with 3 unfolded leafs were sprayed with a track sprayer and 200 I/ha spray volume with the test compounds, either solo or in tankmix as shown in the table below.
1 day after application the plants were infested with a solution of Sclerotinia sclerotiorum mycelium. The plants were placed under plastic hoods and high humidity conditions in a climate chamber at 14 h day/10 h night cycle and 15° C. Disease infestation was evaluated visually 11 days after application and average activity calculated in relation to disease severity on untreated check.

[5] = system: Septoria tritici; experiment: Septoria tritici on wheat, preventive treatment; type: in vivo; conditions: solo, wheat Riband, 1 day preventive, 18 days after application
[6] = system: Monographella nivalis (syn. Microdochium nivale, Fusarium nivale); experiment: Monographella nivalis (snow mould, foot rot of cereals), PDB microtiter plate, visual after 72 hrs; type: cell-based; conditions: Monographella nivalis
[7] = system: Sphaerotheca fuliginea; experiment: Sphaerotheca fuliginea (powdery mildew) on cucumber, preventive treatment; type: in vivo; conditions: solo, 2 days preventive, 10 days after application
Excerpt: In the following Tables 'Activity (%)' means the assessed experimental activity (% disease control in this test when compared to untreated control leaf disks under the same conditions, which show extensive disease development) and “P” is the expected value calculated (expected) activity according to the COLBY formula (see above). The column headed 'S?' indicates whether or not synergy was observed, with 'y' meaning that synergy was observed. Sphaerotheca fuliqinea (Powdery Mildew) on Cucumber, Preventive Treatment […] Cucumber plants with unfolded cotyledons were sprayed with a roomsprayer and 40 ml/4 plants spray volume with the test compounds, either solo or in […] shown in the table below. 2 days after application the plants were infested with spores of Sphaerotheca fuliginea.

[8] = system: Puccinia recondita f. sp. tritici; experiment: Puccinia recondita f. sp. tritici / wheat / leaf disc curative (brown rust); type: in vivo; conditions: foliar, compared to untreated control leaf disks, read-out: disease control
Experimental: Puccinia recondita f. sp. tritici/Wheat/Leaf Disc Curative (Brown Rust) Wheat leaf segments cv. Kanzler are placed on agar in multiwell plates (24-well format). The leaf segments are inoculated with a spore suspension of the fungus. Plates were stored in darkness at 19° C. and 75% rh. The formulated test compound diluted in water was applied 1 day after inoculation.

[9] = system: Blumeria graminis f. sp. tritici (Erysiphe graminis f. sp. tritici); experiment: Blumeria graminis f. sp. tritici / wheat / leaf disc preventative (powdery mildew on wheat); type: in vivo; conditions: foliar, compared to untreated control leaf disks, read-out: disease control
In short: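 Wheat leaf segments (cv. Kanzler) on agar were sprayed with formulated compound in water, inoculated with powdery mildew 1 day later, and kept at 20° C, 60% rh (24 h dark, then 12 h light/12 h dark). Percent disease control versus untreated scored 6-8 days after application; tested at 200 ppm.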

[10] = system: Fusarium graminearum and Fusarium culmorum; type: in vivo; conditions: solo, 200 g a.i./ha; wheat, 1 day preventive, 9 days after application
[11] = system: Botrytis cinerea; experiment: Botrytis cinerea (gray mould), PDB microtiter plate, visual after 72 hrs; type: cell-based; conditions: Botrytis cinerea; for inhibition at 0.015625 ppm: rate 0.015625 ppm; for inhibition at 0.03125 ppm: rate 0.03125 ppm; for inhibition at 0.03125 ppm / inhibition at 0.0625 ppm: read-out: Activity (%); for inhibition at 0.0625 ppm: rate 0.0625 ppm; for inhibition at 0.25 ppm: rate 0.25 ppm; for inhibition at 0.5 ppm: rate 0.5 ppm; for inhibition at 1 ppm: rate 1 ppm; for inhibition at 2 ppm: rate 2 ppm
[12] = system: Puccinia recondita f. sp. tritici; experiment: Puccinia recondita f. sp. tritici / wheat / leaf disc preventative (brown rust); type: in vivo; conditions: foliar, compared to untreated control leaf disks, read-out: disease control
Excerpt: Puccinia recondita f. sp. tritici/Wheat/Leaf Disc Preventative (Brown Rust) Wheat leaf segments cv. Kanzler were placed on agar in multiwell plates (24-well format) and sprayed with the formulated test compound diluted in water. The leaf disks were inoculated with a spore suspension of the fungus 1 day after application.

[13] = 0.25 ppm, read-out: Activity (%)
[14] = single compound, rate 0.125 ppm

Question: CCN(C)/C=N/c1cc(Br)c(OC2Cc3ccccc3C2)nc1C [Q.062] was tested. Which Activity ([1]; rate 0.5 g ai/ha) did it give?
Answer: 0%

Question: What about the Activity ([1]; rate 2 g ai/ha) of the same compound?
Answer: 13%

Question: What about the inhibition at 0.015625 ppm ([2]; 0.015625 ppm, read-out: Activity (%)) of the same compound?
Answer: 0%

Question: And the inhibition at 0.03125 ppm ([2]; 0.03125 ppm, read-out: Activity (%))?
Answer: 0%

Question: What about the inhibition at 0.0625 ppm ([2]; 0.0625 ppm, read-out: Activity (%)) of the same compound?
Answer: 0%

Question: What about the inhibition at 0.125 ppm ([2]; 0.125 ppm, read-out: Activity (%)) of the same compound?
Answer: 0%

Question: And the inhibition at 0.25 ppm [2, 13]?
Answer: 0%

Question: And the inhibition at 0.5 ppm ([2]; 0.5 ppm, read-out: Activity (%))?
Answer: 0%

Question: And the inhibition at 1 ppm ([2]; 1 ppm)?
Answer: 70%

Question: And the inhibition at 2 ppm ([2]; 2 ppm)?
Answer: 70%

Question: And the inhibition at 0.00390625 ppm ([3]; 0.00390625 ppm)?
Answer: 0%

Question: What about the inhibition at 0.0078125 ppm ([3]; 0.0078125 ppm) of the same compound?
Answer: 0%

Question: What about the inhibition at 0.015625 ppm ([3]; 0.015625 ppm) of the same compound?
Answer: 0%

Question: What about the inhibition at 0.03125 ppm ([3]; 0.03125 ppm) of the same compound?
Answer: 0%

Question: And the inhibition at 0.0625 ppm ([3]; 0.0625 ppm)?
Answer: 0%

Question: What about the inhibition at 0.125 ppm ([3]; 0.125 ppm) of the same compound?
Answer: 0%

Question: What about the inhibition at 0.25 ppm [3, 13] of the same compound?
Answer: 0%

Question: And the inhibition at 0.5 ppm ([3]; 0.5 ppm)?
Answer: 0%

Question: And the inhibition at 1 ppm ([3]; 1 ppm)?
Answer: 0%

Question: What about the inhibition at 2 ppm ([3]; 2 ppm) of the same compound?
Answer: 0%

Question: And the Activity ([4]; rate 25 ppm)?
Answer: 0%

Question: And the Activity ([4]; rate 50 ppm)?
Answer: 2%

Question: What about the Activity ([4]; rate 100 ppm) of the same compound?
Answer: 26%

Question: What about the Activity ([5]; 1 g a.i./ha) of the same compound?
Answer: 2%

Question: What about the Activity ([5]; 3 g a.i./ha) of the same compound?
Answer: 8% and 6%

Question: And the Activity ([5]; 27 g a.i./ha)?
Answer: 50% and 71%

Question: And the Activity ([5]; 81 g a.i./ha)?
Answer: 61%

Question: What about the inhibition at 0.015625 ppm ([6]; applied alone, 0.015625 ppm) of the same compound?
Answer: 0%

Question: And the inhibition at 0.03125 ppm ([6]; applied alone, 0.03125 ppm)?
Answer: 0%

Question: And the inhibition at 0.0625 ppm ([6]; applied alone, 0.0625 ppm)?
Answer: 0%

Question: What about the inhibition at 0.125 ppm ([6]; applied alone, 0.125 ppm) of the same compound?
Answer: 0%

Question: And the inhibition at 2 ppm ([6]; applied alone, 2 ppm)?
Answer: 20%

Question: What about the inhibition at 0.015625 ppm ([6]; single compound, rate 0.015625 ppm) of the same compound?
Answer: 0%

Question: And the inhibition at 0.03125 ppm ([6]; single compound, rate 0.03125 ppm)?
Answer: 0%

Question: And the inhibition at 0.0625 ppm ([6]; single compound, rate 0.0625 ppm)?
Answer: 0%

Question: And the inhibition at 0.125 ppm [6, 14]?
Answer: 0%

Question: And the inhibition at 0.25 ppm ([6]; single compound, rate 0.25 ppm)?
Answer: 20%

Question: And the inhibition at 0.5 ppm ([6]; single compound, rate 0.5 ppm)?
Answer: 50%

Question: And the inhibition at 1 ppm ([6]; single compound, rate 1 ppm)?
Answer: 70%

Question: What about the Activity ([7]; rate 0.2 ppm) of the same compound?
Answer: 0%

Question: And the Activity ([7]; rate 0.6 ppm)?
Answer: 0%

Question: And the Activity ([7]; rate 2 ppm)?
Answer: 7%

Question: What about the pest or weed control at 200 ppm [8] of the same compound?
Answer: ≥ 50%

Question: What about the pest or weed control at 200 ppm [9] of the same compound?
Answer: ≥ 50%

Question: What about the Activity [10] of the same compound?
Answer: 17%

Question: And the inhibition at 0.00390625 ppm ([11]; alone, rate 0.00390625 ppm)?
Answer: 0%

Question: What about the inhibition at 0.0078125 ppm ([11]; alone, rate 0.0078125 ppm) of the same compound?
Answer: 0%

Question: What about the inhibition at 0.015625 ppm ([11]; alone) of the same compound?
Answer: 0%

Question: What about the inhibition at 0.03125 ppm ([11]; alone) of the same compound?
Answer: 0%

Question: What about the inhibition at 0.0625 ppm ([11]; alone) of the same compound?
Answer: 0%

Question: And the inhibition at 0.1258 ppm ([11]; alone, rate 0.1258 ppm)?
Answer: 0%

Question: What about the inhibition at 0.25 ppm ([11]; alone) of the same compound?
Answer: 0%

Question: What about the inhibition at 0.5 ppm ([11]; alone) of the same compound?
Answer: 0%

Question: What about the inhibition at 1 ppm ([11]; alone) of the same compound?
Answer: 0%

Question: And the inhibition at 2 ppm ([11]; alone)?
Answer: 0%

Question: What about the inhibition at 0.015625 ppm ([11]; single compound) of the same compound?
Answer: 0%

Question: And the inhibition at 0.03125 ppm ([11]; single compound)?
Answer: 0%

Question: And the inhibition at 0.0625 ppm ([11]; single compound)?
Answer: 0%

Question: And the inhibition at 0.125 ppm [11, 14]?
Answer: 0%

Question: What about the inhibition at 0.25 ppm ([11]; single compound) of the same compound?
Answer: 0%

Question: And the inhibition at 0.5 ppm ([11]; single compound)?
Answer: 0%

Question: What about the inhibition at 1 ppm ([11]; single compound) of the same compound?
Answer: 0%

Question: And the inhibition at 2 ppm ([11]; single compound)?
Answer: 0%

Question: And the pest or weed control at 200 ppm [12]?
Answer: ≥ 50%
